The results in this text go back to US12448400B2, “KRAS G12D modulating compounds” (priority 2023, dated 2025).

For data set [1], the system named is GP2D (KRAS G12D) cells. Description: 2D cell viability assay (CellTiter-Glo). The format is cell-based. Particulars: 96 h; GP2D cells, 4 days, CellTiter-Glo luminescence; read-out: G12D 2D EC50. In a few lines: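 Viability was read by CellTiter-Glo after 4 days at 37 °C of 2D culture of KRAS G12D GP2D cells (1000/well, RPMI, 10% FBS) on pre-spotted threefold compound dilutions. EC50 was fitted with a sigmoidal dose-response model as the point of half-maximal luminescence loss.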
(In general: Cellular ATP, detected with luciferase, serves as a proxy for viable cell number.)

Data set [2] is described as follows: Rat oral pharmacokinetics. On the set-up: species or system Male Sprague Dawley rats. Particulars: male, Sprague Dawley, in vivo. The protocol:
Rat Oral Pharmacokinetics
Test compounds were formulated in solution formulations (10 w/v % Sulfobutylether-p-cyclodextrin; 90% w/v % 50 mM Citrate Buffer) and administered orally to a group of three Male Sprague Dawley rats. The animals were fasted overnight prior to dose administration and up to four hours after dosing. The test articles were administrated by oral gavage at a dose volume of 5 mL-eq/kg.
(§1) Blood samples were collected at predose and 0.25, 0.5, 1, 2, 4, 6, 8, 12, 24, 48 and 72 hours post dose into K2EDTA tubes and stored on wet ice until processed. Whole blood was processed to plasma by centrifugation (3500 rpm for 10 minutes at 5° C.) within 30 minutes of collection. Plasma samples were placed in Micronic 96 well tubes and stored at −80° C. until transferred. Plasma concentration of the test compounds was determined by LC-MS/MS. Pharmacokinetic parameters were estimated using non-compartment model analysis. The maximum observed concentration (Cmax) and area under the curve from time of dosing to last measured concentration (AUClast) were calculated and reported.

Data set [3] is described as follows: Mouse oral cassette pharmacokinetics. The format is in vivo, male CD-1 mice. Particulars: male, CD-1, mouse, in vivo, po, 30 mg/kg. The protocol: Mouse Oral Cassette Pharmacokinetics
Test compounds (1-3 compounds per cassette) were formulated in solution formulations (10 w/v % Captisol in 50 mM Citrate buffer) and administered orally at 30 mg-eq./kg each compound to a group of four male CD-1 mice. The test articles were administrated by oral gavage at a dose volume of 10 mL-eq/kg.
as §1, with “at” for “at predose and 0.25,”, “3,” for “2, 4,”, “8,” for “8, 12, 24, 48”, “24” for “72”

As to `C#Cc1c(F)ccc2cc(N)nc(-c3c(F)c4c5c(nc(OC[C@@]67CCCN6C[C@H](F)C7)nc5c3F)N3C[C@H]5CC[C@@H]([C@H]3CCC4)N5Cc3oc(=O)oc3C)c12` (atropisomer, axis not shown; (aR)) [Example 73, 4-(((1S,4R,11S,15aR)-11-(3-amino-8-ethynyl-7-fluoroisoquinolin-1-yl)-10,12-difluoro-8-(((2R,7aS)-2-fluorotetrahydro-1H-pyrrolizin-7a(5H)-yl)methoxy)-2,3,4,5,13,14,15,15a-octahydro-1H-1,4-epiminoazepino[1′,2′:1,8]azocino[2,3,4-de]quinazolin-16-yl)methyl)-5-methyl-1,3-dioxol-2-one], the 50% effective concentration (EC50) in data set [1] turned out to be 0.82 nM. Also, in data set [2] (7.5 mg/kg), the “Rat Parent % F” value turned out to be 2% and the “Rat Parent AUC” value was 0.3 µM·h.
With `CCc1c(F)ccc2cc(O)cc(-c3c(F)c4c5c(nc(OC[C@@]67CCCN6C[C@H](F)C7)nc5c3F)N3C[C@H]5CC[C@@H]([C@H]3CCC4)N5Cc3oc(=O)oc3C)c12` (atropisomer, axis not shown; (aR)) [Example 77, 4-(((1S,4R,11R,15aR)-11-(8-ethyl-7-fluoro-3-hydroxynaphthalen-1-yl)-10,12-difluoro-8-(((2R,7aS)-2-fluorotetrahydro-1H-pyrrolizin-7a(5H)-yl)methoxy)-2,3,4,5,13,14,15,15a-octahydro-1H-1,4-epiminoazepino[1′,2′:1,8]azocino[2,3,4-de]quinazolin-16-yl)methyl)-5-methyl-1,3-dioxol-2-one], in data set [1], the EC50 was 0.26 nM. Besides, the “Rat Parent AUC” value in data set [2] (7.5 mg/kg) was determined as 0.43 µM·h.
Turning to `C#Cc1c(F)ccc2cc(N)nc(-c3c(F)c4c5c(nc(OC[C@@]67CCCN6C[C@H](F)C7)nc5c3F)N3C[C@H]5CC[C@@H]([C@H]3CCC4)N5Cc3oc(=O)oc3CC)c12` (atropisomer, axis not shown; (aR)) [Example 79, 4-(((1S,4R,11S,15aR)-11-(3-amino-8-ethynyl-7-fluoroisoquinolin-1-yl)-10,12-difluoro-8-(((2R,7aS)-2-fluorotetrahydro-1H-pyrrolizin-7a(5H)-yl)methoxy)-2,3,4,5,13,14,15,15a-octahydro-1H-1,4-epiminoazepino[1′,2′:1,8]azocino[2,3,4-de]quinazolin-16-yl)methyl)-5-ethyl-1,3-dioxol-2-one], the EC50 in data set [1] came out at 1.2 nM. Also, the “Rat Parent AUC” value in data set [2] (7.5 mg/kg) was determined as 0.22 µM·h.
With `C#Cc1c(F)ccc2cccc(-c3nc4c5c(nc(OC[C@@]67CCCN6C[C@H](F)C7)nc5c3F)N3C[C@H]5CC[C@H](N5)[C@H]3CCC4)c12` [Comp. Ex. 76, (6aR,7S,10R)-2-(8-ethynyl-7-fluoronaphthalen-1-yl)-1-fluoro-13-(((2R,7aS)-2-fluorotetrahydro-1H-pyrrolizin-7a(5H)-yl)methoxy)-5,6,6a,7,8,9,10,11-octahydro-4H-3,11a,12,14,15-pentaaza-7,10-methanocyclohepta[4,5]cycloocta[1,2,3-de]naphthalene, reference compound], the “Mouse Parent AUC (nM * h)” value in data set [3] is 1,400 nM * h. Also, in data set [2] (5 mg/kg), the “Rat Parent % F” value is on record as 2% and the “Rat Parent AUC” value came to 0.059 µM·h.
On to `C#Cc1c(F)ccc2cccc(-c3nc4c5c(nc(OC[C@@]67CCCN6C[C@H](F)C7)nc5c3F)N3C[C@H]5CC[C@@H]([C@H]3CCC4)N5C(=O)OC(C)OC(=O)CCC)c12` (stereo partly drawn) [Example 25, 1-(butyryloxy)ethyl (6aR,7S,10R)-2-(8-ethynyl-7-fluoronaphthalen-1-yl)-1-fluoro-13-(((2R,7aS)-2-fluorotetrahydro-1H-pyrrolizin-7a(5H)-yl)methoxy)-5,6,6a,7,8,9,10,11-octahydro-4H-3,11a,12,14,15-pentaaza-7,10-methanocyclohepta[4,5]cycloocta[1,2,3-de]naphthalene-15-carboxylate], for which, in data set [2] (5 mg/kg), the “Rat Parent % F” value was determined as 1% and the “Rat Parent AUC” value amounted to 0.037 µM·h.
`C#Cc1c(F)ccc2cc(N)cc(-c3nc4c5c(nc(OC[C@@]67CCCN6C[C@H](F)C7)nc5c3F)N3C[C@H]5CC[C@@H]([C@H]3CCC4)N5Cc3oc(=O)oc3CCC)c12` [Example 35, 4-(((6aR,7S,10R)-2-(3-amino-8-ethynyl-7-fluoronaphthalen-1-yl)-1-fluoro-13-(((2R,7aS)-2-fluorotetrahydro-1H-pyrrolizin-7a(5H)-yl)methoxy)-5,6,6a,7,8,9,10,11-octahydro-4H-3,11a,12,14,15-pentaaza-7,10-methanocyclohepta[4,5]cycloocta[1,2,3-de]naphthalen-15-yl)methyl)-5-propyl-1,3-dioxol-2-one]: the EC50 in data set [1] stood at 0.46 nM. Further, in data set [2] (15 mg/kg), the “Rat Parent % F” value worked out at 5% and the “Rat Parent AUC” value amounted to 0.27 µM·h.
As to `C#Cc1c(F)ccc2cc(N)cc(-c3nc4c5c(nc(OC[C@@]67CCCN6C[C@H](F)C7)nc5c3F)N3C[C@H]5CC[C@@H]([C@H]3CCC4)N5Cc3oc(=O)oc3CCCCCC)c12` [Example 36, 4-(((6aR,7S,10R)-2-(3-amino-8-ethynyl-7-fluoronaphthalen-1-yl)-1-fluoro-13-(((2R,7aS)-2-fluorotetrahydro-1H-pyrrolizin-7a(5H)-yl)methoxy)-5,6,6a,7,8,9,10,11-octahydro-4H-3,11a,12,14,15-pentaaza-7,10-methanocyclohepta[4,5]cycloocta[1,2,3-de]naphthalen-15-yl)methyl)-5-hexyl-1,3-dioxol-2-one], the EC50 in data set [1] is 0.49 nM. Moreover, in data set [2] (7.5 mg/kg), the “Rat Parent % F” value was found to be 1.9% and the “Rat Parent AUC” value is 0.052 µM·h.
In the same order, the values of `C#Cc1c(F)ccc2cc(O)cc(-c3nc4c5c(nc(OC[C@@]67CCCN6C[C@H](F)C7)nc5c3F)N3C[C@H]5CC[C@@H]([C@@H]3[C@H]3CCC[C@@H]43)N5Cc3oc(=O)oc3C)c12` [Example 42, 4-(((3aS,3bS,4S,7R,14bR)-13-(8-ethynyl-7-fluoro-3-hydroxynaphthalen-1-yl)-12-fluoro-10-(((2R,7aS)-2-fluorotetrahydro-1H-pyrrolizin-7a(5H)-yl)methoxy)-2,3,3a,3b,4,5,6,7,8,14b-decahydro-1H-8a,9,11,14,15-pentaaza-4,7-methanocyclopenta[d]naphtho[1,8-ab]heptalen-15-yl)methyl)-5-methyl-1,3-dioxol-2-one] are 1.7 nM, 0.3% and 0.2 µM·h.
For the compound `C#Cc1c(F)ccc2cc(N)cc(-c3nc4c5c(nc(OC[C@@]67CCCN6C[C@H](F)C7)nc5c3F)N3C[C@H]5CC[C@@H]([C@H]3CCC4)N5Cc3oc(=O)oc3C(C)C)c12` [Example 80, 4-(((6aR,7S,10R)-2-(3-amino-8-ethynyl-7-fluoronaphthalen-1-yl)-1-fluoro-13-(((2R,7aS)-2-fluorotetrahydro-1H-pyrrolizin-7a(5H)-yl)methoxy)-5,6,6a,7,8,9,10,11-octahydro-4H-3,11a,12,14,15-pentaaza-7,10-methanocyclohepta[4,5]cycloocta[1,2,3-de]naphthalen-15-yl)methyl)-5-isopropyl-1,3-dioxol-2-one], the EC50 in data set [1] turned out to be 0.37 nM. Further, in data set [2] (7.5 mg/kg), the “Rat Parent % F” value is 2.1% and the “Rat Parent AUC” value turned out to be 0.057 µM·h.
For `C#Cc1c(F)ccc2cc(N)cc(-c3nc4c5c(nc(OC[C@@]67CCCN6C[C@H](F)C7)nc5c3F)N3C[C@H]5CC[C@@H]([C@H]3CCC4)N5Cc3oc(=O)oc3C(C)(C)C)c12` [Example 81, 4-(((6aR,7S,10R)-2-(3-amino-8-ethynyl-7-fluoronaphthalen-1-yl)-1-fluoro-13-(((2R,7aS)-2-fluorotetrahydro-1H-pyrrolizin-7a(5H)-yl)methoxy)-5,6,6a,7,8,9,10,11-octahydro-4H-3,11a,12,14,15-pentaaza-7,10-methanocyclohepta[4,5]cycloocta[1,2,3-de]naphthalen-15-yl)methyl)-5-(tert-butyl)-1,3-dioxol-2-one] the same measures were 0.63 nM, 0.4% and 0.011 µM·h.

What is called EC50 is the midpoint of the concentration-response curve.
